# From patent US20240279176A1, “SUBSTITUTED TRICYCLIC HETEROCYCLIC COMPOUNDS AS METALLO-BETA-LACTAMASE INHIBITORS” (priority 2021, published 2024)
# Like-named read-outs stand apart in the source and are kept apart here.
# Key:
# [1] = test system: Klebsiella pneumoniae ATCC BAA-2146; experiment: Checkerboard synergy assay in combination with Meropenem; format: cell-based; details: K. pneumoniae ATCC BAA-2146; for Fold reduction in meropenem MIC in the presence of compounds (μg/mL) 8: compound at 8 μg/mL; for Fold reduction in meropenem MIC in the presence of compounds (μg/mL) 16: compound at 16 μg/mL; for Fold reduction in meropenem MIC in the presence of compounds (μg/mL) 32: compound at 32 μg/mL; for Fold reduction in meropenem MIC in the presence of compounds (μg/mL) 4: compound at 4 μg/mL
# [2] = test system: Klebsiella pneumoniae ATCC BAA-2146; experiment: Checkerboard synergy assay in combination with Imipenem; format: cell-based; details: K. pneumoniae ATCC BAA-2146; for Fold reduction in Imipenem MIC in the presence of compounds (μg/mL) 4: compound at 4 μg/mL; for Fold reduction in Imipenem MIC in the presence of compounds (μg/mL) 8: compound at 8 μg/mL; for Fold reduction in Imipenem MIC in the presence of compounds (μg/mL) 16: compound at 16 μg/mL; for Fold reduction in Imipenem MIC in the presence of compounds (μg/mL) 32: compound at 32 μg/mL
# IMP-1 = IMP-1 (Serratia marcescens, UniProt P52699); experiment: Enzyme activity: IC50 in fluorescence assay with cephalosporin substrate FC5; format: biochemical; details: 100 pM IMP-1, 10 μM FC5, 10 min pre-incubation
# IMP-1, sequence (P52699 19-246, looked up, species assumed): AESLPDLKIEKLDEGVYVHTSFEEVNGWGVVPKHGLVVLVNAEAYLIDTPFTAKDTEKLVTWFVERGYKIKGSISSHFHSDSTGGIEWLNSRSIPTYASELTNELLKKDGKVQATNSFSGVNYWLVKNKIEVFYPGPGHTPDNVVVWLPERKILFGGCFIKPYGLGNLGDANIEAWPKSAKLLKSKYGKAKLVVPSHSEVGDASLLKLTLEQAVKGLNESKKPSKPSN
# NDM-1 = NDM-1 (Klebsiella pneumoniae, UniProt C7C422); experiment: as above; format: biochemical; details: 50 pM NDM-1, 1.5 μM FC5, 10 min pre-incubation
# NDM-1, sequence (C7C422 29-270, looked up): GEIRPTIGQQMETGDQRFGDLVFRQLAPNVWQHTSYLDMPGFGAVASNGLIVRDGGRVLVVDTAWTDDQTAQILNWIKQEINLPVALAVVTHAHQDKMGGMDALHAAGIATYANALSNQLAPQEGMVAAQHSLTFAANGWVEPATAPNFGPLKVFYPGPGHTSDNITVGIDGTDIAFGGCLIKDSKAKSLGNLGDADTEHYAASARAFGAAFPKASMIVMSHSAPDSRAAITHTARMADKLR
# [3] = test system: Klebsiella pneumoniae ATCC BAA-2146; experiment: Minimum inhibitory concentration (MIC), broth-microdilution (CLSI); format: cell-based; details: ATCCBAA2146, compound alone, K. pneumoniae ATCC BAA-2146, read-out: Intrinsic MIC
Fold reduction in meropenem MIC in the presence of compounds (μg/mL) 8 [1],Fold reduction in meropenem MIC in the presence of compounds (μg/mL) 16 [1],Fold reduction in meropenem MIC in the presence of compounds (μg/mL) 32 [1],Fold reduction in Imipenem MIC in the presence of compounds (μg/mL) 4 [2],Fold reduction in Imipenem MIC in the presence of compounds (μg/mL) 8 [2],Fold reduction in Imipenem MIC in the presence of compounds (μg/mL) 16 [2],Fold reduction in Imipenem MIC in the presence of compounds (μg/mL) 32 [2],IC50 (IMP-1),IC50 (NDM-1),MIC ([3]; Imipenem series),MIC ([3]; meropenem series),Fold reduction in meropenem MIC in the presence of compounds (μg/mL) 4 [1],SMILES
2 fold,4 fold,4 fold,4 fold,4 fold,4 fold,8 fold,3.74 µM,0.334 µM,> 128 µg/mL,> 128 µg/mL,,"O=C(O)c1[nH]c2c(c1-c1cncc(F)c1)CCc1ccccc1-2 [Example 53, 3-(5-fluoropyridin-3-yl)-4,5-dihydro-1H-benzo[g]indole-2-carboxylic Acid]"
4 fold,8 fold,8 fold,4 fold,4 fold,8 fold,8 fold,1.36 µM,0.075 µM,> 128 µg/mL,> 128 µg/mL,4 fold,"O=C(O)c1[nH]c2c(c1-c1cncc(Cl)c1)CCc1ccccc1-2 [Example 54, 3-(5-chloropyridin-3-yl)-4,5-dihydro-1H-benzo[g]indole-2-carboxylic Acid]"
4 fold,4 fold,8 fold,,,,2 fold,2.67 µM,0.143 µM,> 128 µg/mL,> 128 µg/mL,4 fold,"COc1cc(F)ccc1-c1c(C(=O)O)[nH]c2c1CCc1ccccc1-2 [Example 56, 3-(4-fluoro-2-methoxyphenyl)-4,5-dihydro-1H-benzo[g]indole-2-carboxylic Acid]"
8 fold,8 fold,16 fold,4 fold,4 fold,8 fold,16 fold,0.552 µM,0.015 µM,> 128 µg/mL,> 128 µg/mL,4 fold,"COc1cc(Cl)cc(-c2c(C(=O)O)[nH]c3c2CCc2ccccc2-3)c1 [Example 59, 3-(3-chloro-5-methoxyphenyl)-4,5-dihydro-1H-benzo[g]indole-2-carboxylic Acid]"
4 fold,8 fold,8 fold,4 fold,8 fold,8 fold,8 fold,0.495 µM,0.049 µM,> 128 µg/mL,> 128 µg/mL,4 fold,"COc1cc(OC)cc(-c2c(C(=O)O)[nH]c3c2CCc2ccccc2-3)c1 [Example 61, 3-(3,5-dimethoxyphenyl)-4,5-dihydro-1H-benzo[g]indole-2-carboxylic Acid]"
